Experimental data reported in US7507813B2, “Amorphous cefuroxime axetil and preparation process therefore” (Nanomaterials Technology Pte Ltd., priority 2004, dated 2009).

test: Particle size of the cefuroxime axetil particles (SEM images); assay type: physicochemical; settings: amorphous particles from antisolvent precipitation

Structure (SMILES) | average particle size
CO/N=C(\C(=O)N[C@@H]1C(=O)N2C(C(=O)OC(C)OC(C)=O)=C(COC(N)=O)CS[C@H]12)c1ccco1 (some centres unmarked) [Example 1, cefuroxime axetil] | about 500 nm
CO/N=C(\C(=O)N[C@@H]1C(=O)N2C(C(=O)OC(C)OC(C)=O)=C(COC(N)=O)CS[C@H]12)c1ccco1 (some centres unmarked) [Example 2, cefuroxime axetil] | about 600 nm
CO/N=C(\C(=O)N[C@@H]1C(=O)N2C(C(=O)OC(C)OC(C)=O)=C(COC(N)=O)CS[C@H]12)c1ccco1 (some centres unmarked) [Example 3, cefuroxime axetil] | about 1 μm
CO/N=C(\C(=O)N[C@@H]1C(=O)N2C(C(=O)OC(C)OC(C)=O)=C(COC(N)=O)CS[C@H]12)c1ccco1 (some centres unmarked) [Example 4, cefuroxime axetil] | about 400 nm
CO/N=C(\C(=O)N[C@@H]1C(=O)N2C(C(=O)OC(C)OC(C)=O)=C(COC(N)=O)CS[C@H]12)c1ccco1 (some centres unmarked) [Example 5, cefuroxime axetil] | about 200 nm
CO/N=C(\C(=O)N[C@@H]1C(=O)N2C(C(=O)OC(C)OC(C)=O)=C(COC(N)=O)CS[C@H]12)c1ccco1 (some centres unmarked) [Example 6, cefuroxime axetil] | about 1 μm
CO/N=C(\C(=O)N[C@@H]1C(=O)N2C(C(=O)OC(C)OC(C)=O)=C(COC(N)=O)CS[C@H]12)c1ccco1 (some centres unmarked) [Example 7, cefuroxime axetil] | about 500 nm
CO/N=C(\C(=O)N[C@@H]1C(=O)N2C(C(=O)OC(C)OC(C)=O)=C(COC(N)=O)CS[C@H]12)c1ccco1 (some centres unmarked) [Example 8, cefuroxime axetil] | about 2 μm
CO/N=C(\C(=O)N[C@@H]1C(=O)N2C(C(=O)OC(C)OC(C)=O)=C(COC(N)=O)CS[C@H]12)c1ccco1 (some centres unmarked) [Example 9, cefuroxime axetil] | about 500 nm
CO/N=C(\C(=O)N[C@@H]1C(=O)N2C(C(=O)OC(C)OC(C)=O)=C(COC(N)=O)CS[C@H]12)c1ccco1 (some centres unmarked) [Example 10, cefuroxime axetil] | about 600 nm
CO/N=C(\C(=O)N[C@@H]1C(=O)N2C(C(=O)OC(C)OC(C)=O)=C(COC(N)=O)CS[C@H]12)c1ccco1 (some centres unmarked) [Example 11, cefuroxime axetil] | about 1 μm
